This passage reports chromatographic logP results from patent US20230192617A1, “AZABICYCLIC(THIO)AMIDES AS FUNGICIDAL COMPOUNDS” (Bayer CropScience Aktiengesellschaft, priority 2020, published 2023).

As a reminder, the chromatographic logP is a lipophilicity value derived from retention on a column.

The nature of one data set: Measurement of Log P values by HPLC on reversed phase columns (EEC directive 79/831 Annex V.A8). It counts as physicochemical. The following applies: method [a]: LC-UV, acidic range, 0.1% formic acid in water and acetonitrile as eluent. The procedure:
A-1.1. Measurement of Log P Values
Measurement of Log P values as provided herein was performed according to EEC directive 79/831 Annex V.A8 by HPLC (High Performance Liquid Chromatography) on reversed phase columns with the following methods:
^[a] Log P value is determined by measurement of LC-UV, in an acidic range, with 0.1% formic acid in water and acetonitrile as eluent (linear gradient from 10% acetonitrile to 95% acetonitrile).
^[b] Log P value is determined by measurement of LC-UV, in a neutral range, with 0.001 molar ammonium acetate solution in water and acetonitrile as eluent (linear gradient from 10% acetonitrile to 95% acetonitrile).
^[c] Log P value is determined by measurement of LC-UV, in an acidic range, with 0.1% phosphoric acid and acetonitrile as eluent (linear gradient from 10% acetonitrile to 95% acetonitrile).
If more than one Log P value is available within the same method, all the values are given and separated by “+”. […]
The compound `O=C(O)c1c(Oc2cccc(C(F)(F)F)c2)nnc2ccccc12` [1-01] registered a chromatographic logP of 2.27.

For `COC(=O)c1c(Oc2cccc(C(F)(F)F)c2)nnc2ccccc12` [1-02], the chromatographic logP turned out to be 3.62. Same read-out and setting: the same measure for `O=C(O)c1c(Oc2cccc(Cl)c2)nnc2ccccc12` [1-03]: 2.07; for `Cc1cccc(Oc2nnc3ccccc3c2C(=O)O)c1` [1-04]: 1.92. Regarding `O=C(O)c1c(Oc2cccc(C(F)(F)F)c2)cnc2ccccc12` [1-07, 3-(3-(trifluoromethyl)phenoxy)quinoline-4-carboxylic acid], the chromatographic logP was found to be 2.57.

In turn, `COC(=O)c1c(Oc2cccc(C(F)F)c2)nnc2ccccc12` [1-09] gave a chromatographic logP of 3.06. Still for that read-out and setting: the same measure for `O=C(O)c1c(Oc2cccc(C(F)F)c2)nnc2ccccc12` [1-11]: 1.87; for `COC(=O)c1c(Oc2cccc(C(F)(F)F)c2)cnc2ccccc12` [1-13, methyl 3-(3-(trifluoromethyl)phenoxy)quinoline-4-carboxylate]: 3.8; for `CC(C)OC(=O)c1c(Oc2cccc(Cl)c2)nnc2ccccc12` [1-14]: 4.19. The same measure, in the same setting: the same measure for `O=C(O)c1c(Oc2cccc(C(F)(F)F)c2)cnc2ccoc12` [1-15, 6-[3-(trifluoromethyl)phenoxy]furo[3,2-b]pyridine-7-carboxylic acid]: 2.08; for `O=C(O)c1c(Oc2cccc(C3CC3)c2F)nnc2ccccc12` [1-18, 3-(3-cyclopropyl-2-fluoro-phenoxy)cinnoline-4-carboxylic acid]: 2.23; for `CCOC(=O)c1c(Oc2cccc(Br)c2F)nnc2c1CCCC2` [1-21]: 3.85. Compound `CCOC(=O)c1c(Oc2cccc(C(F)(F)F)c2)nnc2c1CCCC2` [1-22] yielded a chromatographic logP of 3.9.

Take `CCOC(=O)c1c(Oc2cccc(C(F)F)c2)nnc2c1CCCC2` [1-23]: the chromatographic logP worked out at 3.37. On the same count and under the same terms, with `CCOC(=O)c1c(Oc2cccc(Cl)c2F)nnc2c1CCCC2` [1-26, ethyl 3-(3-chloro-2-fluoro-phenoxy)-5,6,7,8-tetrahydrocinnoline-4-carboxylate] the figure was 3.76. On the same count and under the same terms, the same measure for `O=C(O)c1c(Oc2cccc(Br)c2F)nnc2c1CCCC2` [1-27]: 1.55. As for `O=C(O)c1c(Oc2cccc(Cl)c2F)nnc2c1CCCC2` [1-29, 3-(3-chloro-2-fluoro-phenoxy)-5,6,7,8-tetrahydrocinnoline-4-carboxylic acid], the chromatographic logP is 1.46. This chromatographic logP and that of the compound before are within 0.2 log units of each other. On the same count and under the same terms, with `O=C(O)c1c(Oc2cccc(C(F)(F)F)c2)nnc2c1CCCC2` [1-31] the figure was 1.6; with `O=C(O)c1c(Oc2cccc(C(F)F)c2)nnc2c1CCCC2` [1-32], 1.18. Same read-out and setting: the same measure for `O=C(O)c1c(Oc2cccc(Br)c2F)cnc2ccccc12` [1-39]: 2.59; for `O=C(O)c1c(Oc2cccc(C(F)F)c2)cnc2ccccc12` [1-41]: 2.1. The same measure, in the same setting: with `C#Cc1cccc(Oc2cnc3ccccc3c2C(=O)O)c1` [1-49] the figure was 2.2; with `C=Cc1cccc(Oc2cnc3ccccc3c2C(=O)O)c1` [1-50], 2.41. Take `O=C(O)c1c(Oc2cccc(C3CC3)c2F)cnc2ccccc12` [1-51]: the chromatographic logP is 2.71.

Staying with this data set, now noted: method [b]: LC-UV, neutral range, 0.001 molar ammonium acetate solution in water and acetonitrile as eluent.
`CCOC(=O)c1c(Oc2cccc(C(F)F)c2)nnc2c1CCCC2` [1-23] showed a chromatographic logP of 3.19. On the same count and under the same terms, the same measure for `CCOC(=O)c1c(Oc2cccc(Cl)c2F)nnc2c1CCCC2` [1-26, ethyl 3-(3-chloro-2-fluoro-phenoxy)-5,6,7,8-tetrahydrocinnoline-4-carboxylate]: 3.56; for `O=C(O)c1c(Oc2cccc(Br)c2F)nnc2c1CCCC2` [1-27]: 0.45; for `O=C(O)c1c(Oc2cccc(Cl)c2F)nnc2c1CCCC2` [1-29, 3-(3-chloro-2-fluoro-phenoxy)-5,6,7,8-tetrahydrocinnoline-4-carboxylic acid]: 0.42. Same read-out and setting: with `O=C(O)c1c(Oc2cccc(C(F)(F)F)c2)nnc2c1CCCC2` [1-31] the figure was 0.55.

The data set is the same for the next values; noted with them: reversed phase HPLC column, method [a]: LC-UV, acidic range, 0.1% formic acid in water and acetonitrile as eluent.
`C[C@H](NC(=O)c1c(Oc2ccc(Cl)cc2)nnc2ccccc12)c1cccc(C(F)(F)F)c1` (racemic) [I-204] gave a chromatographic logP of 3.92. Still for that read-out and setting: the same measure for `O=C(O)c1c(Oc2cccc(C(F)(F)F)c2)nnc2cnccc12` [1-05]: 2.04; for `O=C(O)c1c(Oc2cncc(C(F)(F)F)c2)nnc2ccccc12` [1-06]: 1.83; for `COC(=O)c1c(Oc2cccc(C#N)c2)nnc2ccccc12` [1-08]: 2.64. On the same count and under the same terms, the same measure for `N#Cc1cccc(Oc2nnc3ccccc3c2C(=O)O)c1` [1-10]: 1.56; for `Cc1ccc2c(C(=O)O)c(Oc3cccc(C(F)(F)F)c3)nnc2c1` [1-12, 7-methyl-3-(3-(trifluoromethyl)phenoxy)cinnoline-4-carboxylic acid]: 2.74. Regarding `O=C(O)c1c(Oc2ccc(Cl)cc2)nnc2ccccc12` [1-16], the chromatographic logP worked out at 2.12.

`O=C(O)c1c(Oc2cccc(C(F)(F)F)c2)nnc2c1OCCO2` [1-17, 3-[3-(trifluoromethyl)phenoxy]-6,7-dihydro-[1,4]dioxino[2,3-c]pyridazine-4-carboxylic acid] registered a chromatographic logP of 1.31. On the same count and under the same terms, with `CC1(C)COc2c(nnc(Oc3cccc(C(F)(F)F)c3)c2C(=O)O)O1` [1-19] the figure was 1.82; with `CC1(C)COc2nnc(Oc3cccc(C(F)(F)F)c3)c(C(=O)O)c2OC1` [1-20], 2.02; with `CCOC(=O)c1c(Oc2cccc(Cl)c2)nnc2c1CCCC2` [1-24], 3.72. The same measure, in the same setting: the same measure for `CCOC(=O)c1c(Oc2cccc(C3CC3)c2F)nnc2c1CCCC2` [1-25]: 3.79; for `O=C(O)c1c(Oc2cccc(Cl)c2)nnc2c1CCCC2` [1-28]: 1.28. The same measure, in the same setting: the same measure for `O=C(O)c1c(Oc2cccc(C3CC3)c2F)nnc2c1CCCC2` [1-30]: 1.72; for `O=C(O)c1c(Oc2cccc(C(F)(F)F)c2)nnc2c1COCC2` [1-33]: 1.38. In the case of `O=C(O)c1c(Oc2cccc(C(F)(F)F)c2)nnc2cc(C3CC3)ccc12` [1-34], the chromatographic logP came to 3.21. Still for that read-out and setting: the same measure for `O=C(O)c1c(Oc2cccc(Br)c2F)nnc2ccccc12` [1-35]: 2.43; for `O=C(O)c1c(Oc2cccc(C3CC3)c2)nnc2ccccc12` [1-36]: 2.36.

In turn, `CCOC(=O)c1c(Oc2cccc(Br)c2F)nnc2ccccc12` [1-37] gave a chromatographic logP of 4.02. The same measure, in the same setting: the same measure for `O=C(O)c1c(Oc2cccc(C(F)(F)F)c2)nnc2cc(F)ccc12` [1-38]: 2.62; for `CCOC(=O)c1c(Oc2cccc(Cl)c2F)nnc2c1CCC2` [1-40]: 3.37. Still for that read-out and setting: the same measure for `CCOC(=O)c1c(Oc2cccc(C(F)(F)F)c2)nnc2ccccc12` [1-42]: 3.95. On the same count and under the same terms, the same measure for `Cc1cccc(Oc2cnc3ccccc3c2C(=O)O)c1` [1-43]: 2.18; for `CCOC(=O)c1c(Oc2cccc(C(F)(F)F)c2)nnc2c1CCC2(C)C` [1-44]: 4.4; for `O=C(O)c1c(Oc2cccc(C3CC3)c2)cnc2ccccc12` [1-45]: 2.59. As for `CC1(C)CCc2c1nnc(Oc1cccc(C(F)(F)F)c1)c2C(=O)O` [1-46], the chromatographic logP turned out to be 2.49.

Turning to `O=C(O)c1c(Oc2cccc(Br)c2)cnc2ccccc12` [1-47], the chromatographic logP turned out to be 2.48. The same measure, in the same setting: the same measure for `O=C(O)c1c(Oc2cccc(Br)c2)nnc2ccccc12` [1-48]: 2.2; for `CCOC(=O)c1c(Oc2cccc(C(F)(F)F)c2)nnc2cc(C)ccc12` [1-52]: 4.38; for `CCOC(=O)c1c(Oc2cccc(C(F)(F)F)c2)nnc2cc(C3CC3)ccc12` [1-53]: 4.81.

The same data set, now with this note: reversed phase HPLC column, method [b]: LC-UV, neutral range, 0.001 molar ammonium acetate solution in water and acetonitrile as eluent.
Regarding `O=C(O)c1c(Oc2cccc(C3CC3)c2F)nnc2c1CCCC2` [1-30], the chromatographic logP was determined as 0.6.
